Experimental data taken from ChEMBL document CHEMBL5500370, “Discovery of potent and novel dual NAMPT/BRD4 inhibitors for efficient treatment of hepatocellular carcinoma” (Eur J Med Chem, 2024).
Calls of active or inactive are those of the source. The calls are words filed in the database; no cut-off is given here.

Tests used:
[1] = system: Hep 3B2; assay: Induction of cell cycle arrest at G2/M phase in human Hep3B cells at 1 uM measured after 72 hrs by PI/RNase staining based flow cytometry (reference value: 11.37 %); assay type: functional
[2] = system: HCCLM3; assay: Antitumor activity against human HCCLM3 cells xenografted in BALB/c nude mouse at 80 mg/kg, ip for 27 days relative to control; assay type: functional; settings: HCCLM3, 648 h, time 27 day, read-out: TGI
[3] = molecular target: T1, Nicotinamide phosphoribosyltransferase (Homo sapiens, UniProt P43490); assay: Inhibition of NAMPT in human HCCLM3 cells assessed as decrease in NAD+ level at 10 uM measured after 72 hrs by WST-8 assay; assay type: cell-based
Target sequence in this assay (P43490 whole entry, looked up): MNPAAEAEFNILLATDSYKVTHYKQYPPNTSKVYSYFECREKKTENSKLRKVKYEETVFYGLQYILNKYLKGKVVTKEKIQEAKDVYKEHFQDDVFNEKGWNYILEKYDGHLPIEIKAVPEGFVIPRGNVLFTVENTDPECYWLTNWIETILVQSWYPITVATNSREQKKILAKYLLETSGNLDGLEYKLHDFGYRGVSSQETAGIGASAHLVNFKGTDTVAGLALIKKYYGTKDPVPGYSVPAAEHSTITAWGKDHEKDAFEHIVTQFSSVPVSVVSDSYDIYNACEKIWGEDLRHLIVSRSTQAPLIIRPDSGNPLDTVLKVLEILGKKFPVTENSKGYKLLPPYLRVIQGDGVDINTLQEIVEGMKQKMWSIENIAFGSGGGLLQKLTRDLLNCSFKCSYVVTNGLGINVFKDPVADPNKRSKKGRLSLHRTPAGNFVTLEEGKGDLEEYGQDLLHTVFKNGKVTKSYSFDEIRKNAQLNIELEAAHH

[4] = system: HCCLM3; assay: cells; settings: Homo sapiens, HCCLM3, 120 h
[5] = system: Hep 3B2; assay: Antiproliferative activity against NMN-treated human Hep3B cells incubated for 120 hrs by MTT assay; assay type: functional, cell-based
[6] = system: Hep 3B2; assay: Induction of apoptosis in human Hep3B cells assessed as viable cells at 1 uM measured after 72 hrs by Annexin V-FITC/PI staining based flow cytometry (reference value: 94.08 %); assay type: functional; settings: read-out: Activity
[7] = molecular target: T1, Nicotinamide phosphoribosyltransferase; assay: Inhibition of NAMPT in human Hep3B cells assessed as decrease in NAD+ level at 10 uM measured after 72 hrs by WST-8 assay; assay type: cell-based
Target sequence in this assay (P43490 whole entry, looked up): as above

[8] = system: Hep 3B2; assay: Induction of cell cycle arrest at S phase in human Hep3B cells at 5 uM measured after 72 hrs by PI/RNase staining based flow cytometry (reference value: 31.90 %); assay type: functional
[9] = system: Hep 3B2; assay: cells; settings: Homo sapiens, Hep3B, 120 h
[10] = system: Hep 3B2; assay: Antiproliferative activity against NMN/NAMN-treated human Hep3B cells incubated for 120 hrs by MTT assay; assay type: functional, cell-based
[11] = system: Hep 3B2; assay: Induction of apoptosis in human Hep3B cells assessed as late apoptotic cells at 10 uM measured after 72 hrs by Annexin V-FITC/PI staining based flow cytometry (reference value: 1.05 %); assay type: functional
[12] = molecular target: T2, Bromodomain-containing protein 4 (Homo sapiens, UniProt O60885); assay: Inhibition of BRD4 BD2 (unknown origin) incubated for 120 mins by TR-FRET assay
[13] = Antiproliferative activity against human LX2 cells incubated for 120 hrs by MTT assay; assay type: toxicity, cell-based; settings: LX-2 cells
[14] = system: Hep 3B2; assay: Induction of cell cycle arrest at G0/G1 phase in human Hep3B cells at 5 uM measured after 72 hrs by PI/RNase staining based flow cytometry (reference value: 56.73 %); assay type: functional
[15] = system: Hep 3B2; assay: Induction of cell cycle arrest at G0/G1 phase in human Hep3B cells at 10 uM measured after 72 hrs by PI/RNase staining based flow cytometry (reference value: 56.73 %); assay type: functional
[16] = molecular target: Bromodomain-containing protein 2 (Homo sapiens, UniProt P25440); assay: Inhibition of BRD2 BD1/2 (unknown origin) incubated for 120 mins by TR-FRET assay
Bromodomain-containing protein 2, sequence (P25440 whole entry): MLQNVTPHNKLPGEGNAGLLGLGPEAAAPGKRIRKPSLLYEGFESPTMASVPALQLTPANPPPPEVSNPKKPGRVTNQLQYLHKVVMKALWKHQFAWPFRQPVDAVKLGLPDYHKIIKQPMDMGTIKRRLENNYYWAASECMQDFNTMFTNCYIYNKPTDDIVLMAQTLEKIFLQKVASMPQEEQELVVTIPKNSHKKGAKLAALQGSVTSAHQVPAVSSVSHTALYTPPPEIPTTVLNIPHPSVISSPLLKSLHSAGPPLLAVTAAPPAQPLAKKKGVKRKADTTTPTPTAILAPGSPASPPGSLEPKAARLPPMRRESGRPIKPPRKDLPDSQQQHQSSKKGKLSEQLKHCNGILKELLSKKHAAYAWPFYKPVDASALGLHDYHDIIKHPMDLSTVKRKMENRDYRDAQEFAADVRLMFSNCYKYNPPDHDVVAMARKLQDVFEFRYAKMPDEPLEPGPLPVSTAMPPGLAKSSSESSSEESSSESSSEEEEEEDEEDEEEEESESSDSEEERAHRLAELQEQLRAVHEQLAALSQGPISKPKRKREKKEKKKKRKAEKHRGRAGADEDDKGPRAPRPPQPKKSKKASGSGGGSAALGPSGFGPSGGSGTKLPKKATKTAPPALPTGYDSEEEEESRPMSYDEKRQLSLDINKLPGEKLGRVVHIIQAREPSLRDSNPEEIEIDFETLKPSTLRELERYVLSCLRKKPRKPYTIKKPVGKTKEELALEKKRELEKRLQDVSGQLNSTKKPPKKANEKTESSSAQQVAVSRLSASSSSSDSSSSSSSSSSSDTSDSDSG

[17] = molecular target: T1, Nicotinamide phosphoribosyltransferase; assay: Inhibition of recombinant NAMPT (unknown origin) by fluorescence based assay
Target sequence in this assay (P43490 whole entry): as the sequence (P43490 whole entry, looked up) above

[18] = system: Huh-7; assay: cells; settings: Homo sapiens, Huh-7, 120 h
[19] = molecular target: T2, Bromodomain-containing protein 4; assay: Inhibition of BRD4 (unknown origin) incubated for 120 mins by TR-FRET assay
[20] = molecular target: T2, Bromodomain-containing protein 4; assay: Inhibition of BRD4 in human Hep3B cells assessed as decrease in YAP1 level at 1 to 10 uM measured after 72 hrs by immunoblot analysis; assay type: cell-based; settings: dose 1-10 µM
[21] = molecular target: Bromodomain-containing protein 3 (Homo sapiens, UniProt Q15059); assay: Inhibition of BRD3 BD1/2 (unknown origin) incubated for 120 mins by TR-FRET assay
Bromodomain-containing protein 3, sequence (Q15059 whole entry): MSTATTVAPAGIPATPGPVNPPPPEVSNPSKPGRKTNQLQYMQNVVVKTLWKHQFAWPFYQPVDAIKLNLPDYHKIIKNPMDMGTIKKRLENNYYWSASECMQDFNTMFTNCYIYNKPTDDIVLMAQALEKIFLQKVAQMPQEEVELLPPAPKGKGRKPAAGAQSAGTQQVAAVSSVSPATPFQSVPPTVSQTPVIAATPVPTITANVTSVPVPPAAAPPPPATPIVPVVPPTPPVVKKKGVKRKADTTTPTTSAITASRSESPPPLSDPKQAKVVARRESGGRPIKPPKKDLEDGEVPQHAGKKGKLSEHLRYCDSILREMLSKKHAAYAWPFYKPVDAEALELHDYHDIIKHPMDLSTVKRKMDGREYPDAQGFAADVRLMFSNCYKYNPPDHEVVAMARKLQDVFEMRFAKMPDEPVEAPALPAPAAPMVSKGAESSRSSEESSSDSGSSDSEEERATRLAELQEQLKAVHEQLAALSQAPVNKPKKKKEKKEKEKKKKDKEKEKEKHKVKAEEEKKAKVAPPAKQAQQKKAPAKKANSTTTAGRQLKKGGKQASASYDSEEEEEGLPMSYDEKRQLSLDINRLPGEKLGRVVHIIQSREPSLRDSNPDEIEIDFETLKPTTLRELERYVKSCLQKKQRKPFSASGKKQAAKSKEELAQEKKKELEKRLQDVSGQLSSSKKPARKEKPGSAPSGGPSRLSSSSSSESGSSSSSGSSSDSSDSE

[22] = system: HCCLM3; assay: Antiproliferative activity against NMN/NAMN-treated human HCCLM3 cells incubated for 120 hrs by MTT assay; assay type: functional, cell-based
[23] = system: Hep 3B2; assay: Induction of cell cycle arrest at G0/G1 phase in human Hep3B cells at 1 uM measured after 72 hrs by PI/RNase staining based flow cytometry (reference value: 56.73 %); assay type: functional
[24] = system: HCCLM3; assay: Antiproliferative activity against NMN-treated human HCCLM3 cells incubated for 120 hrs by MTT assay; assay type: functional, cell-based
[25] = system: Hep 3B2; assay: Induction of cell cycle arrest at G2/M phase in human Hep3B cells at 10 uM measured after 72 hrs by PI/RNase staining based flow cytometry (reference value: 11.37 %); assay type: functional
[26] = Toxicity in BALB/c nude mouse xenografted with human HCCLM3 cells assessed as body weight loss at 40 to 80 mg/kg, ip for 27 days; assay type: organism-based; settings: in vivo, 648 h, dose 40-80 mg/kg, time 27 day
[27] = system: HCCLM3; assay: Antitumor activity against human HCCLM3 cells xenografted in BALB/c nude mouse assessed as tumor growth suppression administered intraperitoneally for 27 days; assay type: functional; settings: dose 40-80 mg/kg, route ip, time 27.0 day
[28] = system: Hep 3B2; assay: Induction of apoptosis in human Hep3B cells assessed as necrotic cells at 10 uM measured after 72 hrs by Annexin V-FITC/PI staining based flow cytometry (reference value: 2.74 %); assay type: functional
[29] = molecular target: T2, Bromodomain-containing protein 4; assay: Inhibition of BRD4 BD1/2 (unknown origin) incubated for 120 mins by TR-FRET assay
[30] = molecular target: T2, Bromodomain-containing protein 4; assay: Inhibition of BRD4 in human Hep3B cells assessed as decrease in c-Myc level at 1 to 10 uM measured after 72 hrs by immunoblot analysis; assay type: cell-based; settings: dose 1-10 µM
[31] = system: Hep 3B2; assay: Induction of apoptosis in human Hep3B cells assessed as viable cells at 5 uM measured after 72 hrs by Annexin V-FITC/PI staining based flow cytometry (reference value: 94.08 %); assay type: functional; settings: read-out: Activity
[32] = system: Hep 3B2; assay: Induction of apoptosis in human Hep3B cells assessed as early apoptotic cells at 5 uM measured after 72 hrs by Annexin V-FITC/PI staining based flow cytometry (reference value: 2.13 %); assay type: functional
[33] = system: HCCLM3; assay: Antiproliferative activity against NAMN-treated human HCCLM3 cells incubated for 120 hrs by MTT assay; assay type: functional, cell-based
[34] = system: Hep 3B2; assay: Induction of apoptosis in human Hep3B cells assessed as necrotic cells at 1 uM measured after 72 hrs by Annexin V-FITC/PI staining based flow cytometry (reference value: 2.74 %); assay type: functional
[35] = system: Hep 3B2; assay: Induction of cell cycle arrest at G2/M phase in human Hep3B cells at 5 uM measured after 72 hrs by PI/RNase staining based flow cytometry (reference value: 11.37 %); assay type: functional
[36] = system: Hep 3B2; assay: Induction of apoptosis in human Hep3B cells assessed as early apoptotic cells at 10 uM measured after 72 hrs by Annexin V-FITC/PI staining based flow cytometry (reference value: 2.13 %); assay type: functional
[37] = molecular target: Bromodomain testis-specific protein (Homo sapiens, UniProt Q58F21); assay: Inhibition of BRDT BD1 (unknown origin) incubated for 120 mins by TR-FRET assay
[38] = system: Hep 3B2; assay: Induction of apoptosis in human Hep3B cells assessed as viable cells at 10 uM measured after 72 hrs by Annexin V-FITC/PI staining based flow cytometry (reference value: 94.08 %); assay type: functional; settings: Homo sapiens, Hep3B, read-out: Activity

## Cc1sc2c(c1C)C(c1ccc(Cl)cc1)=N[C@@H](CC(=O)NCCCNC(=O)/C=C/c1cccnc1)c1nnc(C)n1-2
[1]
  Activity: 9.76%
[2]
  inhibition in vivo at 80 mg/kg: 58.2%
[3]
  inhibition: Active
[4]
  IC50: 5440 nM
[5]
  Activity: inactive
[6]
  viability at 1 µM: 83.9%
[7]
  inhibition: Active
[8]
  Activity: 20.57%
[9]
  IC50: 2370 nM
[10]
  Activity: inactive
[11]
  Activity: 6.56%
[12]
  IC50: 41 nM
[13]
  IC50 at 120 h: 9510 nM
[14]
  Activity: 71.08%
[15]
  Activity: 76.25%
[16]
  IC50: 489 nM
[17]
  IC50: 35 nM
[18]
  IC50: 6490 nM
[19]
  IC50: 58 nM
[20]
  inhibition: Active
[21]
  IC50: 122 nM
[22]
  Activity: inactive
[23]
  Activity: 66.06%
[24]
  Activity: inactive
[25]
  Activity: 5.54%
[26]
  Activity: Non-Toxic
[27]
  Activity: Dose-Dependent Effect
[28]
  Activity: 2.43%
[29]
  IC50: 58 nM
[30]
  inhibition: Active
[31]
  viability at 5 µM: 74.7%
[32]
  Activity: 14.49%
[33]
  Activity: inactive
[34]
  Activity: 2.69%
[35]
  Activity: 8.35%
[36]
  Activity: 18.89%
[37]
  IC50: 354 nM
[38]
  viability at 10 µM: 72.1%
